In one test the target is T1, pro-cath-D (Homo sapiens, UniProt P07339).
T1 construct: the 52, 34, 14 and 4 kDa cath-D fragments were expressed as GST fusion proteins; made in house; host or cells: Escherichia coli BL21 (GST fusion)
In words: GST pull-down: competition for binding of LRP1β (1-476) to GST-pro-cath-D. The conditions noted are these: radio-labelled LRP1β (1-476), beads with GST-cath-D/52K, increasing concentration of the peptide; Fig. 2C. The method, then: • (A) Schematic representation of GST-LRP1β fragments. Shorter GST-LRP1β fragments (F4, F6-F8) were derived from GST-LRP1β (307-479) (F0). The F4 (349-394) GST-LRP1β fragment was then sub-divided into shorter fragments (F5, F9-13). • (B) Binding of pro-cath-D to GST-LRP1β fragments. Radio-labelled pro-cath-D was incubated with beads containing GST-LRP1β fragments or GST. GST proteins bound to beads were stained by Coomassie (panels a, c) and bound pro-cath-D was detected by autoradiography (panels b, d). • (C) Effect of the (349-397) LRP1 peptide for the binding of the extracellular domain of LRP1β (1-476) to pro-cath-D. Schematic representation and numbering of the EGF-like repeats 16 to 22 present in the extracellular domain of LRP1β is shown in panel a. Radio-labelled extracellular domain of LRP1β (1-476) was incubated with beads containing GST-cath-D/52K in the absence or presence of increasing concentration of the (349-397) LRP1 peptide (panel b). GST proteins stained by Coomassie are shown in left panel and bound LRP1β (1-476) in right panel .
GST pull-down assays. [^35S]methionine-labelled pro-cath-D or LRP1β(1-476) were obtained by transcription and translation of pcDNA3.1(-)cath-D or pcONA3.1(+)LRP1β extracellular domain(1-476) expression plasmids, respectively, using the TNT^T7-coupled reticulocyte lysate system (Promega). […]

In test [1] the target is auto-activated pro-cath-D (Homo sapiens, UniProt P07339). In words: Cleavage of the LRP1 [349-397] peptide by auto-activated pro-cath-D (HPLC, NH2-terminal sequencing). The conditions noted are these: pro-cath-D 500 ng auto-activated at pH 3.5 for 30 min, 2 h with 50 µM peptide at pH 3.5. Format: biochemical. The text has this:
(§1) • (A) Shedding of LRP1 β chain ectodomain. SEAP activity was quantified in the medium of COS cells transiently transfected with SEAP-LRP1β and β-galactosidase vectors in the absence or presence of cath-D vector (panel a). The mean ± SD of 4 independent determinations with both transfections and measurements carried in duplicate is shown *, p<0.0025 versus control (Student's t-test). […] A representative experiment from a transfection performed in duplicate is shown. Similar results were obtained in another independent experiment. • (B) Cleavage of the LRP1 [349-397] peptide by auto-activated pro-cath-D. Pro-cath-D (500 ng), auto-activated at pH 3.5 for 30 min, was incubated for 2 h with 50 µM of LRP1 [349-397] peptide at pH 3.5. Cleaved peptides were resolved by reverse-phase HPLC and subjected to NH2-terminal sequence analysis. Arrows indicate the 3 cleavage sites. • (C) Production of LRP1 β carboxyl-terminal fragment. COS cells, transfected with Myc-LRP1β in the absence or presence of wild-type or D231 N cath-D, were treated with DAPT (1 µM) or DMSO for 24 h. Cells were lysed and the full-length Myc-LRP1β and its carboxy-terminal fragment (LRP1β-CTF) were isolated by immunoprecipitation and visualized by immunoblotting with the monoclonal antibody 11H4. *, p<0.025 versus Luc siRNA HMF cells; **, p<0.0025 versus Luc siRNA HMF cells (Student's t-test).

Test [2] has as its system LRP1β-CTF. In words: Production of LRP1β-CTF and shedding of LRP1β in HMF fibroblasts. Format: cell-based, human. The conditions noted are these: DAPT 1 µM, 24 h, Fig. 6B panel a. On the procedure: (§2) • (A) Pro-cath-D is internalized in part by LRP1. Conditioned media containing labelled pro-cath-D was produced by incubating cath-D expressing 3Y1-Ad12 cells with [S^35]methionine and [S^35]cysteine for 24 h. HMF fibroblasts were transiently transfected with either Luc siRNA or LRP1 siRNA1 and endocytosis of labelled pro-cath-D was performed 48 h post-transfection. For endocytosis, siRNAs-transfected HMF fibroblasts were incubated for 3 h (panel a) or for 18h (panel c) with conditioned medium containing labelled pro-cath-D in the absence or presence of 10 mM M6P. Cell lysates containing endocytosed labelled cath-D were analyzed by SDS-PAGE after immunoprecipitation with M1G8 anti-cath-D antibody (panels a and c). LRP1β expression was monitored in HMF fibroblasts by immunoblotting 48 h post-transfection with either Luc or LRP1 siRNAs (panels b and d). ßactin was used as a loading control. […] LRP1β shedded in the media of HMF fibroblasts after 24 h in the presence of DAPT (1 µM) was detected by immmunoblotting with the monoclonal antibody #3501 directed against the extracellular LRP1 β chain (panel b). […]
(§3) Immunoblotting. […] Equal amounts of protein (100 µg) from cell extracts quantitated by the Bradford assay, or equal volumes (80 µl) of conditioned media, were separated by SDS-PAGE on a 7.5 % gel for anti-LRP1β immunoblotting or on a 12 % gel for anti-cath-D immuno-blotting. […]

The subject of test [3] is LRP1β-CTF. In words: Production of LRP1β carboxyl-terminal fragment in COS cells (immunoprecipitation and immunoblotting). Format: cell-based. The conditions noted are these: COS cells transfected with Myc-LRP1β, DAPT 1 µM for 24 h; Fig. 5C.
Excerpt: as §1, with “Cells were lysed and the full-length Myc-LRP1β and its carboxy-terminal fragment (LRP1β-CTF) were isolated by immunoprecipitation and visualized by immunoblotting with the monoclonal antibody 11H4. *, p<0.025 versus Luc siRNA HMF cells; **, p<0.0025 versus Luc siRNA HMF cells (Student's t-test).” left out
as §3

The test system of another test is HMF fibroblasts. In words: Endocytosis of labelled pro-cath-D in HMF fibroblasts. Format: cell-based. The conditions noted are these: Homo sapiens, Fibroblast, over 3 h, 10 mM M6P, read-out: inhibition of pro-cath-D internalization. On the procedure:
as §2

Another test concerns SEAP-LRP1β. In words: LRP1 ectodomain secretion assay (SEAP activity in the medium). Type of test: cell-based. The conditions noted are these: cath-D expressing COS cells, pepstatin 100 µM; Fig. 5A panel b.
Excerpt: as §1, with “Cells were lysed and the full-length Myc-LRP1β and its carboxy-terminal fragment (LRP1β-CTF) were isolated by immunoprecipitation and visualized by immunoblotting with the monoclonal antibody 11H4. *, p<0.025 versus Luc siRNA HMF cells; **, p<0.0025 versus Luc siRNA HMF cells (Student's t-test).” left out
LRP1 ectodomain secretion assay. […] SEAP activity was normalized to […] activity measured by hydrolysis of o-nitrophenyl-β-D-galactopyranoside in cells lysed in the reporter lysis buffer (Promega).

Non-standard residues stand in square brackets, D forms with d. Residues, ends and D or L forms follow the SMILES beside them. *: point of attachment. Sta = CC(C)C[C@H](N)[C@@H](O)CC(=O)O; Isovaleryl = CC(C)CC(=O)*

T1 sequence (P07339 21-412): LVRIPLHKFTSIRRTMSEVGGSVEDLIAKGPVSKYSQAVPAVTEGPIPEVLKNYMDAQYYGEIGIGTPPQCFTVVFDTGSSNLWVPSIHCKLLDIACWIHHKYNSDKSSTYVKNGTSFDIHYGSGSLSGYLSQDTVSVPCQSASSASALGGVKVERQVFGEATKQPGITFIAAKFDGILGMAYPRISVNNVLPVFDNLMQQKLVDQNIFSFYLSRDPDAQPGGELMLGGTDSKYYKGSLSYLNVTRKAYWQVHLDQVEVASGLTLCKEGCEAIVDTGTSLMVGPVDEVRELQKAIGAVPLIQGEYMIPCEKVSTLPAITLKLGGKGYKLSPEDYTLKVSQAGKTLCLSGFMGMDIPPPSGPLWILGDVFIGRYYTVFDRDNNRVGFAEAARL
auto-activated pro-cath-D, sequence (P07339 65-412): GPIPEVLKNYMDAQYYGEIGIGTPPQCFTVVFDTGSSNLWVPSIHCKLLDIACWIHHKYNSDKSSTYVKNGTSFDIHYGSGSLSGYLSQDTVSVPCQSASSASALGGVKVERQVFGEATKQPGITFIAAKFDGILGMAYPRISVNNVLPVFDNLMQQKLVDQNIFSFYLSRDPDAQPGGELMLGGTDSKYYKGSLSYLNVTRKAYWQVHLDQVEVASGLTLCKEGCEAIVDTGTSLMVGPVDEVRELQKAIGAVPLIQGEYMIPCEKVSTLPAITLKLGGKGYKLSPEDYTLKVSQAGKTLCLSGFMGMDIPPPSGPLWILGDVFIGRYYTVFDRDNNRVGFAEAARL

Regarding “49-mer: polypeptide sequence of 49 amino acids corresponding to the 349-397 fragment of the extra-cellular LRP1 β chain, SEQ ID NO: 5 (CRCLPGFLGDRCQYRQCSGYCENFGTCQMAADGSRQCRCTAYFEGSRCE)”, the “competition for the binding of LRP1β (1-476) to GST-pro-cath-D” value in the test with pro-cath-D was “competed efficiently”. For the same compound, the cleavage sites in test [1] came to 3. As for `C[C@H](NC(=O)Cc1cc(F)cc(F)c1)C(=O)N[C@H](C(=O)OC(C)(C)C)c1ccccc1` [DAPT], in the test with LRP1β-CTF [2], the “level of membrane bound LRP1β-CTF” value is listed as “further increase”. In the test with LRP1β-CTF [3], the “presence of LRP1β-CTF” value is “strong increase”.

As to `O=C[C@@H](O)[C@@H](O)[C@H](O)[C@H](O)COP(=O)(O)O` [M6P, mannose-6-phosphate], the inhibition at 10000 µM in the test with HMF fibroblasts is 82%. Take `CC(C)CC(=O)N[C@H](C(=O)N[C@H](C(=O)N[C@@H](CC(C)C)[C@@H](O)CC(=O)N[C@@H](C)C(=O)N[C@@H](CC(C)C)[C@@H](O)CC(=O)O)C(C)C)C(C)C` [pepstatin A] (Isovaleryl-VV[Sta]A[Sta]-OH): in the test with SEAP-LRP1β, the SEAP-LRP1β ectodomain shedding result was “prevented”.
